Assay results: patent US20150004137A1, “NOVEL FORMS OF PLANT DEFENSINS” (Balmoral Australia Pty Ltd, priority 2011, published 2015)
Entries after “also recorded” stand apart in the source; their conditions may differ. Where no end group is shown, it is not given here.

Key:
U937 and PC3 cells = test: Subcellular localisation of BODIPY-NaD1 by CLSM; format: cell-based, human; conditions: PI present, 12 minutes
Experimental: FIG. 2B is a series of micrographs examining the subcellular localisation of BODIPY-NaD1 in U937 and PC3 cells. U937 cells immobilised onto 10% poly-L-lysine coverslips or PC3 cells cultured as adherent monolayers on coverslips, were treated with […] BODIPY-NaD1 in the presence of 1 μg/ml PI for 12 minutes and cells imaged by CLSM. Scale bars represent 10 μm.
Live imaging was performed on a Zeiss LSM-510 confocal microscope using a 40× oil immersion objective in a 37° C./5% CO2 atmosphere. Adherent cells were cultured on coverslips prior to imaging while non-adherent cells were immobilized onto 10% poly-L-lysine-coated coverslips. All cell types were prepared for imaging in RPMI medium containing 0.1% BSA and […] PI. […] In certain experiments, cells were either, stained with PKH67 (Sigma-Aldrich) or transfected with plasmid construct for free GFP or GFP-PH(PLCδ) using Lipofectamine™ 2000 Reagent (Invitrogen) as per manufacturer's instructions prior to imaging. Transmission electron microscopy (TEM) imaging was performed according to a previously described procedure (Adda et al. 2009).

U937 cells [1] = test: BODIPY-NaD1 binding to viable and permeabilised U937 cells (flow cytometry, 7AAD); format: cell-based, human; conditions: 10 μM, 37° C., 30 min
Source text: The percentage of cells in each population (boxed) is indicated.

U937 cells [2] = test: PI uptake membrane permeabilisation assay (flow cytometry); format: cell-based, human; conditions: 30 minutes at 37° C.
Experimental: FIG. 5B is a graphical representation showing the effect of rNaD1, rNaD1(D2L4A), or rNaD1(D2L5) on the permeabilisation of U937 cells. Cells were incubated with 10 μM of each defensin for 30 minutes at 37° C. upon which 1 μg/ml PI propidium iodide (PI) was added. The number of cells that stained positively for PI was determined by flow cytometry.
Cells were incubated with 10 μM of each defensin for 30 minutes at 37° C. upon which 1 μg/ml PI propidium iodide (PI) was added. The number of cells that stained positively for PI was determined by flow cytometry.
Cells were incubated with 5 μM of each defensin for 30 minutes at 37° C. upon which […] PI propidium iodide (PI) was added. The number of cells that stained positively for PI was determined by flow cytometry.
Unless otherwise stated, cells are re-suspended at a cell concentration of 4×10^5 cells/mL in complete culture RPMI-1640 medium supplemented with 10% FBS, 100 μ/mL penicillin and 100 μg/mL streptomycin, and are added to either a V-bottom 96-well plate or microfuge tubes. Cells are kept at 37° C., unless otherwise stated, during protein addition (5 μL) at various concentrations or the set concentration of 10 μM. Typically, cells are mixed with the heterogeneous defensin of interest and are incubated at 37° C. for 30 min. In certain experiments, cells are also incubated at either 4° C. or 37° C. for 2-60 min prior to flow cytometry analysis. Cells are added to an equal volume of complete culture medium containing 2 μg/mL propidium iodide (PI, Annexin V-FITC Apoptosis Detection Kit, Invitrogen) and are analysed immediately by flow cytometry using a FACSCanto cell sorter (Becton Dickson, Fanklin Lakes, N.J.) and Cell Quest Pro Software (Becton Dickson). Typically, 5000-10000 events per sample are collected and the resultant data is analysed using FlowJo software (Tree Star, Ashland, Oreg.). Cells are gated appropriately based on forward scatter (FSC) and side scatter (SSC), with the viable cells is determined by their ability to exclude PI. […]

[3] = Cross-linking (BS3) study of lipid-mediated oligomerisation with PA; conditions: 0.5 mM PA, 30 min room temperature, SDS-PAGE, immunoblot
Experimental: (§1) Molecular weight markers are indicated.
(§2) Protein samples at 1 mg ml^−1 (2.5 μl) were incubated with 0.5 mM PIP2 or PA (2.5 μl) at room temperature for 30 min. […] Samples were reduced and denatured, and subjected to SDS-PAGE.

[4] = as described in PCT/AU2011/000760 and U.S. Ser. No. 13/166,960; cited from earlier work
[5] = Cross-linking (BS3) study of lipid-mediated oligomerisation with PIP2; conditions: 0.5 mM PIP2, 30 min room temperature, SDS-PAGE, immunoblot
Experimental: as §1, §2

tumour cells = conditions: as disclosed in PCT/AU2011/000760 and U.S. Ser. No. 13/166,960; cited from earlier work
[6] = Lipid binding assay on Echelon membrane lipid strips; conditions: anti-NaD1 antibody detection, densitometry
Source text: FIG. 5C is an immunoblot depicting the lipid binding profile of rNaD1, rNaD1(D2L4A), or rNaD1(D2L5). Echelon™ membrane lipid strips were probed with the defensins and binding detected with a rabbit anti-NaD1 antibody followed by a horseradish peroxidase (HRP) conjugated donkey anti-rabbit IgG antibody.
Data is the mean of three replicate experiments±SEM.
Echelon™ membrane lipid strips were probed with the defensins and binding was detected with a rabbit anti-NaD1 antibody followed by a horseradish peroxidase (HRP) conjugated donkey anti-rabbit IgG antibody.
Membrane Lipid Strips™, PIP Strips™ and Sphingo Strips™ (Echelon Biosciences, Salt Lake City, Utah) were incubated with PBS/3% BSA for 1-2 h at RT to block non-specific binding. […] Membrane-bound protein was detected by probing the membrane strips with a rabbit anti-NaD1 polyclonal antibody (diluted 1:2000 with PBS/1% BSA) for 1 h at 4° C., followed by a HRP-conjugated donkey anti-rabbit IgG antibody (diluted 1:2000 with PBS/1% BSA) for 1 h at 4° C. After each antibody incubation, the membrane strips were washed extensively for 60 min at RT with PBS/0.1% Tween-20. Chemiluminescence was detected using the enhanced chemiluminescence (ECL) western blotting reagent (GE Healthcare BioSciences, NSW Australia) and exposed to Hyperfilm (GE Healthcare BioSciences, NSW, Australia) and developed using an Xomat (All-Pro-Imaging). […]

[7] = molecular target: the molecule itself; test: BS3 cross-linking in solution, SDS-PAGE and immunoblot; NaD2 was also efficiently multimerised by PA and not by PIP2
Experimental: FIG. 4B is an immunoblot depicting the lipid-mediated oligomerisation of the class II defensins NaD1 and TPP3, and the class I defensin NaD2. Each of the defensins at 250 ng/ml were incubated with 0.5 mM PIP2 or PA at room temperature for 30 minutes and samples then treated with the cross-linker bis[sulfosuccinimidyl] suberate (BS³) at 12.5 mM for a further 30 minutes, Samples were reduced and denatured, separated by SDS-PAGE, and examined by immunoblotting with an anti-NaD1 (NaD1 and TPP3) or anti-NaD2 (NaD2) antibody. Molecular weight markers are indicated.

## BODIPY-NaD1: BODIPY-labelled NaD1 (RECKTESNTFPGICITKPPCRKACISEKFTDGHCSKILRRCLCTKPC; cysteine pairing not given here; also: BODIPY label (position not given here); UniProt Q8GTM0 26-72, looked up)
U937 and PC3 cells
  subcellular localisation on permeabilised tumor cells: accumulation of BODIPY-NaD1 at the membrane bleb(s), cytoplasm, nucleolus and possibly at certain cytoplasmic organelles
U937 cells [1]; 7AAD, flow cytometry
  binding to U937 cells: bound to both viable (7AAD negative) and permeabilised (7AAD positive) U937 cells
U937 cells [1]; compared with unlabelled NaD1
  membrane permeabilisation of U937 (7AAD): comparable level to unlabelled NaD1

## K36E: NaD1 mutant, loop 5 residue K36 replaced with glutamic acid (RECKTESNTFPGICITKPPCRKACISEKFTDGHCSEILRRCLCTKPC; UniProt Q8GTM0 26-72, looked up, variant K36E)
U937 cells [2]; 5 μM of each defensin
  permeabilisation of U937 cells (cells stained positively for PI): greatly reduced ability to permeabilise U937 cells

## R40E: NaD1 mutant, loop 5 residue R40 replaced with glutamic acid (RECKTESNTFPGICITKPPCRKACISEKFTDGHCSKILRECLCTKPC; UniProt Q8GTM0 26-72, looked up, variant R40E)
U937 cells [2]; 5 μM of each defensin
  permeabilisation of U937 cells (cells stained positively for PI): greatly reduced ability to permeabilise U937 cells

## RTCESQSHRFKGPCARDSNCATVCLTEGFSGGDCRGFRRRCFCTRPC (listed as Nicotiana alata) [NaD2]
[3]
  multimerisation (oligomer formation) mediated by PA: forms oligomers with PA; also recorded: efficiently multimerised by PA
[4]
  lipid binding preference / ligand: preferentially binds PA over PIP2; also recorded: does not bind PIP2
[5]
  multimerisation (oligomer formation) mediated by PIP2: not PIP2
Tumour cells
  tumour cell killing: does not kill tumour cells

## rNaD1: NaD1 purified from P. pastoris (recombinant NaD1) (RECKTESNTFPGICITKPPCRKACISEKFTDGHCSKILRRCLCTKPC; recombinant, Pichia pastoris; UniProt Q8GTM0 26-72, looked up)
U937 cells [2]; 10 μM of each defensin
  permeabilisation of U937 cells (cells stained positively for PI): permeabilised U937 cells
[6]
  lipid binding profile (lipid bound most strongly / preferred): bound most strongly to PIP2

## RTCESQSHRFKGPCARDSNCATVCLTEGFSGGDCRGFRRRCFCTRPC (other) [NaD2 (Class I plant defensin)]
[7]
  binding result: binds
